Source: patent publication US9493451B2 (Bionomics Limited, priority 2011, dated 2016)

These compounds were tested against T1, Kv1.3 (Homo sapiens, UniProt P22001) (assay: Electrophysiology: planar patch-clamp of Kv1.3 currents, IC50 from steady state current amplitude). Settings: Kv1.3 electrophysiology, results according to Method D1, read-out: IC50 (Kv1.3 ephys steady state).
T1 construct: expressed in transfected cells; host or cells: CHO (Kv1.3/CHO)
Assay type: cell-based
Summary of the method: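 Planar patch-clamp, whole-cell, Kv1.3/CHO cells; 500 ms pulses to +40 mV from −80 mV every 30 s; bath pH 7.4, pipette pH 7.2; 0.5% DMSO final. 5-6 cumulative concentrations on 2-3 cells to steady-state block; IC50 from Hill fit of normalised steady-state current at pulse end.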

T1 sequence (P22001 whole entry): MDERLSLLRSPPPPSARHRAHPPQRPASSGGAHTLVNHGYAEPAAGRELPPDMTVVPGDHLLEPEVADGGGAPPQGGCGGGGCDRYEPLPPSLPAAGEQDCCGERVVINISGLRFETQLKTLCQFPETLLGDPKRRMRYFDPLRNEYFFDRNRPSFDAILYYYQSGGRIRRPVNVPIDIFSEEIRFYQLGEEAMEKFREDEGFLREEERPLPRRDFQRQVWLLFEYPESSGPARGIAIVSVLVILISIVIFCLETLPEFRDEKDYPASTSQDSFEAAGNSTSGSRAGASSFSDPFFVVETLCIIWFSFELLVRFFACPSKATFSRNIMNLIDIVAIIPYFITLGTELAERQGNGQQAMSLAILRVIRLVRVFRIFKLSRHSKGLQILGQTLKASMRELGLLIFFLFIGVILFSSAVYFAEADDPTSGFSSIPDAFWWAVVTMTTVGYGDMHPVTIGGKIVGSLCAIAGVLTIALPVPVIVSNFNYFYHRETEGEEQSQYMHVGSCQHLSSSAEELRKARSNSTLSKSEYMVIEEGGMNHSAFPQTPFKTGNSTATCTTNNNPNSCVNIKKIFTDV

IC50	SMILES
50 to 200 nM	O=C(CS(=O)(=O)c1ccc(F)cc1)N(Cc1ccc(F)nc1)C(c1ccc(Cl)cc1)C1CC1 (centres unmarked) [Example 291]
200 to 1000 nM	O=C(CS(=O)(=O)c1cccc(C(F)(F)F)c1)N(Cc1cccc[n+]1[O-])C(c1ccc(Cl)cc1)C1CC1 (centres unmarked) [Example 292]
50 to 200 nM	O=C(CS(=O)(=O)c1cccc(C(F)(F)F)c1)N(Cc1ccccn1)C(c1ccc(Cl)cc1)C1CC1 (centres unmarked) [Example 293]
50 to 200 nM	O=C(CS(=O)(=O)c1cccc(C(F)(F)F)c1)N(Cc1ccccn1)C(c1ccc(Cl)cc1)C1CC1 (centres unmarked) [Example 294]
50 to 200 nM	COc1ccc(CN(C(=O)CS(=O)(=O)c2ccc(F)cc2)C(c2ccc(Cl)cc2)C2CC2)cn1 (centres unmarked) [Example 295]
200 to 1000 nM	O=C(CS(=O)(=O)c1ccc(F)cc1)N(C1CCNCC1)C(c1ccc(OC(F)F)cc1)C1CC1 (centres unmarked) [Example 298]
50 to 200 nM	O=C(CS(=O)(=O)c1ccccc1F)N(Cc1ccc(C(F)(F)F)nc1)C(c1ccc(OC(F)F)cc1)C1CC1 (centres unmarked) [Example 299]
50 to 200 nM	O=C(CS(=O)(=O)c1ccccc1F)N(Cc1ccc(C(F)(F)F)nc1)C(c1ccc(OC(F)F)cc1)C1CC1 (centres unmarked) [Example 300]
50 to 200 nM	O=C(CS(=O)(=O)c1ccccc1)N(Cc1ccc(C(F)(F)F)nc1)C(c1ccc(OC(F)F)cc1)C1CC1 (centres unmarked) [Example 301]
50 to 200 nM	O=C(CS(=O)(=O)c1ccccc1)N(Cc1ccc(C(F)(F)F)nc1)C(c1ccc(OC(F)F)cc1)C1CC1 (centres unmarked) [Example 302]
50 to 200 nM	O=C(CS(=O)(=O)c1ccccc1)N(Cc1ncccc1F)C(c1ccc(OC(F)F)cc1)C1CC1 (centres unmarked) [Example 303]
50 to 200 nM	O=C(CS(=O)(=O)c1ccccc1)N(Cc1ncccc1F)C(c1ccc(OC(F)F)cc1)C1CC1 (centres unmarked) [Example 304]
50 to 200 nM	O=C(CS(=O)(=O)c1ccccc1)N(Cc1cccnn1)C(c1ccc(OC(F)F)cc1)C1CC1 (centres unmarked) [Example 305]
200 to 1000 nM	O=C(CS(=O)(=O)c1ccccc1)N(Cc1cccnn1)C(c1ccc(OC(F)F)cc1)C1CC1 (centres unmarked) [Example 306]
50 to 200 nM	O=C(CS(=O)(=O)c1cccc(C(F)(F)F)c1)N(Cc1cccnn1)C(c1ccc(OC(F)F)cc1)C1CC1 (centres unmarked) [Example 307]
50 to 200 nM	CC(C)(C(=O)N(Cc1cccnn1)C(c1ccc(OC(F)F)cc1)C1CC1)S(=O)(=O)c1ccc(F)cc1 (centres unmarked) [Example 308]
50 to 200 nM	O=C(CS(=O)(=O)c1ccc(F)cc1)N(Cc1ncccc1F)C(c1ccc(OC(F)F)cc1)C1CC1 (centres unmarked) [Example 309]
200 to 1000 nM	O=C(CS(=O)(=O)c1cccc(C(F)(F)F)c1)N(Cc1cccnn1)C(c1ccc(OC(F)F)cc1)C1CC1 (centres unmarked) [Example 310]
200 to 1000 nM	CC(C)(C(=O)N(Cc1cccnn1)C(c1ccc(OC(F)F)cc1)C1CC1)S(=O)(=O)c1ccc(F)cc1 (centres unmarked) [Example 311]

IC50	SMILES
50 to 200 nM	O=C(CS(=O)(=O)c1ccc(F)cc1)N(Cc1ccc(C(F)(F)F)nc1)C(c1ccc(OC(F)F)cc1)C1CC1 (centres unmarked) [Example 312]
50 to 200 nM	O=C(CS(=O)(=O)c1ccc(F)cc1)N(Cc1ccc(C(F)(F)F)nc1)C(c1ccc(OC(F)F)cc1)C1CC1 (centres unmarked) [Example 313]
200 to 1000 nM	O=C(CS(=O)(=O)c1ccc(F)cc1)N(Cc1ccccn1)C(c1ccc(OC(F)F)cc1)C1CC1 (centres unmarked) [Example 314]
200 to 1000 nM	O=C(CS(=O)(=O)c1ccc(F)cc1)N(C1CCC(F)(F)CC1)C(c1ccc(OC(F)F)cc1)C1CC1 (centres unmarked) [Example 315]
200 to 1000 nM	O=C(CS(=O)(=O)c1ccc(F)cc1)N(C1CCC(F)(F)CC1)C(c1ccc(OC(F)F)cc1)C1CC1 (centres unmarked) [Example 316]
200 to 1000 nM	O=C(CS(=O)(=O)c1ccc(F)cc1)N(C1CCOCC1)C(c1ccc(OC(F)F)cc1)C1CC1 (centres unmarked) [Example 317]
50 to 200 nM	CC(C)(C(=O)N(Cc1ccccn1)C(c1ccc(OC(F)F)cc1)C1CC1)S(=O)(=O)c1ccc(F)cc1 (centres unmarked) [Example 318]
50 to 200 nM	CC(C)(C(=O)N(Cc1ccccn1)C(c1ccc(OC(F)F)cc1)C1CC1)S(=O)(=O)c1ccc(F)cc1 (centres unmarked) [Example 319]
< 50 nM	Cc1cccc(CN(C(=O)CS(=O)(=O)c2ccc(F)cc2)C(c2ccc(OC(F)F)cc2)C2CC2)n1 (centres unmarked) [Example 320]
50 to 200 nM	Cc1ccc(CN(C(=O)CS(=O)(=O)c2ccccc2)C(c2ccc(OC(F)F)cc2)C2CC2)cn1 (centres unmarked) [Example 322]
200 to 1000 nM	Cc1ccc(CN(C(=O)CS(=O)(=O)c2ccccc2)C(c2ccc(OC(F)F)cc2)C2CC2)cn1 (centres unmarked) [Example 323]
50 to 200 nM	CC(C)(C(=O)N(Cc1ccc(C(F)(F)F)nc1)C(c1ccc(OC(F)F)cc1)C1CC1)S(=O)(=O)c1ccccc1 (centres unmarked) [Example 324]
1000 to 2000 nM	CCS(=O)(=O)c1cccc(C(C2CC2)N(Cc2ncccc2F)C(=O)CS(=O)(=O)c2ccccc2)c1 (centres unmarked) [Example 327]
200 to 1000 nM	CCS(=O)(=O)c1cccc(C(C2CC2)N(Cc2ccccn2)C(=O)C(C)(C)S(=O)(=O)c2ccccc2)c1 (centres unmarked) [Example 328]
50 to 200 nM	O=C(CS(=O)(=O)c1ccc(F)cc1)N(Cc1ccccn1)C(c1ccccc1OCC(F)F)C1CC1 (centres unmarked) [Example 329]
50 to 200 nM	O=C(CS(=O)(=O)c1ccc(F)cc1)N(Cc1ccc(C(F)(F)F)nc1)C(c1ccccc1OCC(F)F)C1CC1 (centres unmarked) [Example 330]
50 to 200 nM	Cc1cccc(CN(C(=O)CS(=O)(=O)c2ccc(F)cc2)C(c2ccccc2OC(F)(F)F)C2CC2)n1 (centres unmarked) [Example 331]
50 to 200 nM	N#Cc1cccc(C(C2CC2)N(Cc2ccc(C(F)(F)F)nc2)C(=O)CS(=O)(=O)c2ccc(F)cc2)c1 (centres unmarked) [Example 332]
200 to 1000 nM	N#Cc1cccc(C(C2CC2)N(Cc2ccc(C(F)(F)F)nc2)C(=O)CS(=O)(=O)c2ccc(F)cc2)c1 (centres unmarked) [Example 333]
